Values joined by “and” are separate entries in the source; they are usually repeats but may differ in a detail not shown here. Equal values may be shown once. ± gives the expanded uncertainty stated by the source.
Settings: 343.15 K, Liquid, Vibrating tube method

CCCCCCC(=O)OCC(COC(=O)CCCCCC)(COC(=O)CCCCCC)COC(=O)CCCCCC [pentaerythritol tetraheptanoate]
Settings | mass density
23684 kPa | 957.2 ± 1.2 kg/m3
23715 kPa | 957.3 ± 1.2 kg/m3
23750 kPa | 957.4 ± 1.2 kg/m3
23753 kPa | 957.2 ± 1.2 kg/m3
23785 kPa | 957.4 ± 1.2 kg/m3
23818 kPa | 957.3 ± 1.2 kg/m3
23850 kPa | 957.4 ± 1.2 kg/m3
23889 kPa | 957.4 ± 1.2 kg/m3
23920 kPa | 957.3 ± 1.2 kg/m3
23952 kPa | 957.4 ± 1.2 kg/m3
23991 kPa | 957.4 ± 1.2 kg/m3
24024 kPa | 957.5 ± 1.2 kg/m3
24056 kPa | 957.6 ± 1.2 kg/m3
24094 kPa | 957.5 ± 1.2 kg/m3
24127 kPa | 957.6 ± 1.2 kg/m3
24128 kPa | 957.6 ± 1.2 kg/m3
24160 kPa | 957.5 ± 1.2 kg/m3
24199 kPa | 957.7 ± 1.2 kg/m3
24200 kPa | 957.5 ± 1.2 kg/m3
24232 kPa | 957.6 ± 1.2 kg/m3
24233 kPa | 957.6 ± 1.2 kg/m3
24265 kPa | 957.6 ± 1.2 kg/m3
24266 kPa | 957.8 ± 1.2 kg/m3
24299 kPa | 957.6 ± 1.2 kg/m3
24306 kPa | 957.6 ± 1.2 kg/m3
24334 kPa | 957.8 ± 1.2 kg/m3
24339 kPa | 957.7 ± 1.2 kg/m3
24372 kPa | 957.7 ± 1.2 kg/m3
24373 kPa | 957.8 ± 1.2 kg/m3
24407 kPa | 957.7 ± 1.2 kg/m3
24411 kPa | 957.8 ± 1.2 kg/m3
24440 kPa | 957.7 ± 1.2 kg/m3
24445 kPa | 957.8 ± 1.2 kg/m3
24478 kPa | 957.8 ± 1.2 kg/m3
24480 kPa | 957.8 ± 1.2 kg/m3
24513 kPa | 957.8 ± 1.2 kg/m3
24519 kPa | 957.7 ± 1.2 kg/m3
24552 kPa | 957.7 ± 1.2 kg/m3
24554 kPa | 957.8 ± 1.2 kg/m3
24586 kPa | 957.9 ± 1.2 kg/m3
24621 kPa | 958 ± 1.2 kg/m3
24626 kPa | 957.9 ± 1.2 kg/m3
24661 kPa | 957.9 ± 1.2 kg/m3
24696 kPa | 957.9 ± 1.2 kg/m3
24737 kPa | 957.9 ± 1.2 kg/m3
24771 kPa | 957.9 ± 1.2 kg/m3
24806 kPa | 957.9 ± 1.2 kg/m3
24840 kPa | 958 ± 1.2 kg/m3
24882 kPa | 958 ± 1.2 kg/m3
24916 kPa | 958.1 ± 1.2 kg/m3
24917 kPa | 958.1 ± 1.2 kg/m3
24952 kPa | 958.1 ± 1.2 kg/m3 and 958.2 ± 1.2 kg/m3
24988 kPa | 958.2 ± 1.2 kg/m3
24993 kPa | 958.1 ± 1.2 kg/m3
25028 kPa | 958.2 ± 1.2 kg/m3
25070 kPa | 958.2 ± 1.2 kg/m3
25105 kPa | 958.1 ± 1.2 kg/m3
25141 kPa | 958.2 ± 1.2 kg/m3
25148 kPa | 958.1 ± 1.2 kg/m3
25184 kPa | 958.3 ± 1.2 kg/m3
25220 kPa | 958.2 ± 1.2 kg/m3
25250 kPa | 958.4 ± 1.2 kg/m3
25256 kPa | 958.1 ± 1.2 kg/m3
25279 kPa | 958.4 ± 1.2 kg/m3
25292 kPa | 958.2 ± 1.2 kg/m3
25308 kPa | 958.3 ± 1.2 kg/m3
25336 kPa | 958.4 ± 1.2 kg/m3
25343 kPa | 958.5 ± 1.2 kg/m3
25372 kPa | 958.2 ± 1.2 kg/m3 and 958.5 ± 1.2 kg/m3
25402 kPa | 958.5 ± 1.2 kg/m3
25415 kPa | 958.3 ± 1.2 kg/m3
25452 kPa | 958.3 ± 1.2 kg/m3
25488 kPa | 958.3 ± 1.2 kg/m3
25525 kPa | 958.4 ± 1.2 kg/m3
25530 kPa | 958.5 ± 1.2 kg/m3
25560 kPa | 958.5 ± 1.2 kg/m3
25570 kPa | 958.4 ± 1.2 kg/m3
25590 kPa | 958.5 ± 1.2 kg/m3
25607 kPa | 958.6 ± 1.2 kg/m3
25626 kPa | 958.5 ± 1.2 kg/m3
25645 kPa | 958.4 ± 1.2 kg/m3
25656 kPa | 958.6 ± 1.2 kg/m3
25687 kPa | 958.6 ± 1.2 kg/m3
25692 kPa | 958.5 ± 1.2 kg/m3
25723 kPa | 958.6 ± 1.2 kg/m3
25730 kPa | 958.5 ± 1.2 kg/m3
25752 kPa | 958.6 ± 1.2 kg/m3
25767 kPa | 958.6 ± 1.2 kg/m3
25788 kPa | 958.7 ± 1.2 kg/m3
25805 kPa | 958.7 ± 1.2 kg/m3
25819 kPa | 958.6 ± 1.2 kg/m3
25843 kPa | 958.6 ± 1.2 kg/m3
25849 kPa | 958.6 ± 1.2 kg/m3
25885 kPa | 958.7 ± 1.2 kg/m3
25888 kPa | 958.5 ± 1.2 kg/m3
25915 kPa | 958.7 ± 1.2 kg/m3
25927 kPa | 958.6 ± 1.2 kg/m3
25946 kPa | 958.8 ± 1.2 kg/m3
25966 kPa | 958.7 ± 1.2 kg/m3
25983 kPa | 958.8 ± 1.2 kg/m3
26012 kPa | 958.8 ± 1.2 kg/m3
26014 kPa | 958.9 ± 1.2 kg/m3
26045 kPa | 958.9 ± 1.2 kg/m3
26050 kPa | 958.8 ± 1.2 kg/m3
26082 kPa | 958.8 ± 1.2 kg/m3
26090 kPa | 958.7 ± 1.2 kg/m3
26114 kPa | 958.9 ± 1.2 kg/m3
26136 kPa | 958.8 ± 1.2 kg/m3
26145 kPa | 958.8 ± 1.2 kg/m3
26176 kPa | 958.9 ± 1.2 kg/m3 and 958.8 ± 1.2 kg/m3
26214 kPa | 958.9 ± 1.2 kg/m3
26217 kPa | 958.9 ± 1.2 kg/m3
26244 kPa | 959 ± 1.2 kg/m3
26256 kPa | 958.9 ± 1.2 kg/m3
26282 kPa | 958.9 ± 1.2 kg/m3
26296 kPa | 959 ± 1.2 kg/m3
26313 kPa | 959 ± 1.2 kg/m3
26343 kPa | 958.9 ± 1.2 kg/m3
26345 kPa | 959 ± 1.2 kg/m3
26383 kPa | 959 ± 1.2 kg/m3 and 959.1 ± 1.2 kg/m3
26414 kPa | 958.9 ± 1.2 kg/m3
26430 kPa | 959 ± 1.2 kg/m3
26447 kPa | 959 ± 1.2 kg/m3
26470 kPa | 959 ± 1.2 kg/m3
26485 kPa | 959.1 ± 1.2 kg/m3
26510 kPa | 959 ± 1.2 kg/m3
26518 kPa | 959.2 ± 1.2 kg/m3
26549 kPa | 959.1 ± 1.2 kg/m3
26550 kPa | 959.2 ± 1.2 kg/m3
26583 kPa | 959.2 ± 1.2 kg/m3
26597 kPa | 959.3 ± 1.2 kg/m3
26622 kPa | 959.1 ± 1.2 kg/m3
26638 kPa | 959.2 ± 1.2 kg/m3
26654 kPa | 959.2 ± 1.2 kg/m3
26679 kPa | 959.1 ± 1.2 kg/m3
26693 kPa | 959.1 ± 1.2 kg/m3
26725 kPa | 959.3 ± 1.2 kg/m3
26729 kPa | 959.2 ± 1.2 kg/m3
26758 kPa | 959.2 ± 1.2 kg/m3
26771 kPa | 959.3 ± 1.2 kg/m3
26791 kPa | 959.3 ± 1.2 kg/m3
26812 kPa | 959.3 ± 1.2 kg/m3
26831 kPa | 959.4 ± 1.2 kg/m3
26863 kPa | 959.2 ± 1.2 kg/m3
26864 kPa | 959.3 ± 1.2 kg/m3
26898 kPa | 959.4 ± 1.2 kg/m3
26905 kPa | 959.3 ± 1.2 kg/m3
26939 kPa | 959.3 ± 1.2 kg/m3
26949 kPa | 959.3 ± 1.2 kg/m3
26999 kPa | 959.3 ± 1.2 kg/m3
27006 kPa | 959.3 ± 1.2 kg/m3
27037 kPa | 959.4 ± 1.2 kg/m3
27071 kPa | 959.4 ± 1.2 kg/m3
27081 kPa | 959.5 ± 1.2 kg/m3
27111 kPa | 959.5 ± 1.2 kg/m3
27114 kPa | 959.5 ± 1.2 kg/m3
27145 kPa | 959.5 ± 1.2 kg/m3
27148 kPa | 959.5 ± 1.2 kg/m3
27186 kPa | 959.5 ± 1.2 kg/m3
27189 kPa | 959.6 ± 1.2 kg/m3
27221 kPa | 959.5 ± 1.2 kg/m3
27224 kPa | 959.6 ± 1.2 kg/m3
27256 kPa | 959.5 ± 1.2 kg/m3
27258 kPa | 959.6 ± 1.2 kg/m3
27290 kPa | 959.6 ± 1.2 kg/m3
27300 kPa | 959.5 ± 1.2 kg/m3
27332 kPa | 959.6 ± 1.2 kg/m3
27335 kPa | 959.7 ± 1.2 kg/m3
27367 kPa | 959.7 ± 1.2 kg/m3
27371 kPa | 959.6 ± 1.2 kg/m3
27402 kPa | 959.6 ± 1.2 kg/m3
27408 kPa | 959.7 ± 1.2 kg/m3
27444 kPa | 959.6 ± 1.2 kg/m3
27447 kPa | 959.7 ± 1.2 kg/m3
27479 kPa | 959.7 ± 1.2 kg/m3
27514 kPa | 959.7 ± 1.2 kg/m3
27556 kPa | 959.7 ± 1.2 kg/m3
27590 kPa | 959.8 ± 1.2 kg/m3
27592 kPa | 959.8 ± 1.2 kg/m3
27618 kPa | 959.8 ± 1.2 kg/m3
27627 kPa | 959.8 ± 1.2 kg/m3
27670 kPa | 959.9 ± 1.2 kg/m3
27698 kPa | 959.7 ± 1.2 kg/m3
27742 kPa | 959.8 ± 1.2 kg/m3
27786 kPa | 959.9 ± 1.2 kg/m3
27822 kPa | 959.8 ± 1.2 kg/m3
27858 kPa | 959.9 ± 1.5 kg/m3
27877 kPa | 959.9 ± 1.2 kg/m3
27902 kPa | 960.1 ± 1.2 kg/m3
27910 kPa | 960 ± 1.2 kg/m3
27939 kPa | 960 ± 1.2 kg/m3
27975 kPa | 959.9 ± 1.2 kg/m3
28012 kPa | 959.9 ± 1.2 kg/m3
28056 kPa | 960 ± 1.2 kg/m3
28087 kPa | 960.2 ± 1.2 kg/m3
28093 kPa | 960 ± 1.2 kg/m3
28116 kPa | 960.2 ± 1.2 kg/m3
28137 kPa | 960.1 ± 1.2 kg/m3
28144 kPa | 960.1 ± 1.2 kg/m3
28175 kPa | 960.1 ± 1.2 kg/m3
28178 kPa | 960.2 ± 1.2 kg/m3
28207 kPa | 960.1 ± 1.2 kg/m3
28213 kPa | 960.2 ± 1.2 kg/m3
28236 kPa | 960.1 ± 1.2 kg/m3
28251 kPa | 960.2 ± 1.2 kg/m3
28269 kPa | 960.2 ± 1.2 kg/m3
28288 kPa | 960.2 ± 1.2 kg/m3
28298 kPa | 960.3 ± 1.2 kg/m3
28327 kPa | 960.2 ± 1.2 kg/m3
28333 kPa | 960.2 ± 1.2 kg/m3
28361 kPa | 960.4 ± 1.2 kg/m3
28370 kPa | 960.2 ± 1.2 kg/m3
28389 kPa | 960.3 ± 1.2 kg/m3
28416 kPa | 960.3 ± 1.2 kg/m3
28418 kPa | 960.3 ± 1.2 kg/m3
28453 kPa | 960.3 ± 1.2 kg/m3
28454 kPa | 960.3 ± 1.2 kg/m3
28476 kPa | 960.5 ± 1.2 kg/m3
28492 kPa | 960.3 ± 1.2 kg/m3
28511 kPa | 960.3 ± 1.2 kg/m3
28538 kPa | 960.4 ± 1.2 kg/m3
28540 kPa | 960.4 ± 1.2 kg/m3
28576 kPa | 960.4 ± 1.2 kg/m3
28605 kPa | 960.4 ± 1.2 kg/m3

From the NIST ThermoML archive (doi:10.1021/je060271a)
